Experiments:
[1] = test system: HepG2; test: Cytotoxicity against human HepG2 cells assessed as inhibition of cell growth incubated for 48 hrs by celltiterglo assay; type: toxicity, cell-based; conditions: hepg2, 48 h
[2] = test system: Plasmodium falciparum; test: Antiplasmodial activity against asexual Plasmodium falciparum 3D7 infected in human […] cells assessed as reduction in parasite growth measured for 72 hrs by LDH assay; type: functional, organism-based; conditions: 3D7, 72 h

Compound	CC50 [1] [µM]	EC50 [2] [µM]
Cc1nnc(-c2ccc3ccn(CC(=O)Nc4ccccc4C#N)c3c2)o1	> 40	3.48
Cc1ccc(-c2ccc3ccn(CC(=O)Nc4ccccc4Cl)c3c2)cn1		> 10
CC(C)c1nnc(-c2ccc3ccn(CC(=O)Nc4ccccc4Cl)c3c2)o1		> 10
Cc1nnc(-c2ccc3ccn(CC(=O)Nc4cc(F)ccc4Cl)c3c2)o1	> 40	0.683
Cc1cn(CC(=O)Nc2ccccc2Cl)c2cc(-c3cnn(C)c3)ccc12	> 40	0.868
Cc1nnc(-c2ccc3ccn(CC(=O)N(C)c4ccccc4)c3c2)o1		> 10
CC(C)n1cc(-c2ccc3ccn(CC(=O)Nc4ccccc4Cl)c3c2)cn1		> 10
Cc1nnc(-c2ccc3ccn(CC(=O)Nc4ccc(Cl)cc4)c3c2)o1	> 40	4.47
Cc1nnc(-c2ccc3ccn(CC(=O)Nc4cccc(C#N)c4)c3c2)o1	> 40	0.99
Cc1nnc(-c2ccc3ccn(CC(=O)Nc4cccc(C(F)(F)F)c4)c3c2)o1	> 40	0.615
Cc1nnc(-c2ccc3ccn(CC(=O)Nc4cccc(F)c4Cl)c3c2)o1	> 40	1.33
Cn1cc(-c2ccc3c(Br)cn(CC(=O)Nc4ccccc4Cl)c3c2)cn1	> 40	0.165
COc1ccc(NC(=O)Cn2ccc3ccc(-c4nnc(C)o4)cc32)cc1	> 40	7.8
Cc1nnc(-c2ccc3ccn(CC(=O)Nc4ccc(C#N)cc4)c3c2)o1		> 10
CC(C(=O)Nc1ccccc1Cl)n1ccc2ccc(-c3cnn(C)c3)cc21 (stereo unspecified)	> 40	
Cn1cc(-c2ccc3cnn(CC(=O)Nc4ccccc4Cl)c3c2)cn1		> 10
O=C(Cn1ccc2ccc(-c3nnco3)cc21)Nc1ccccc1Cl		> 10
Cc1nnc(-c2ccc3ccn(CC(=O)Nc4cccc(Cl)c4)c3c2)o1	> 40	0.898
O=C(Cn1ccc2ccc(-c3cnn(C(F)(F)F)c3)cc21)Nc1ccccc1Cl		> 10
Cc1n[nH]c(C)c1-c1ccc2ccn(CC(=O)Nc3ccccc3Cl)c2c1	> 40	3.6

Compound	CC50 [1] [µM]	EC50 [2] [µM]
Cc1c(-c2ccc3ccn(CC(=O)Nc4ccccc4Cl)c3c2)cnn1C	> 40	0.248
Cc1cc2ccc(-c3cnn(C)c3)cc2n1CC(=O)Nc1ccccc1Cl	> 40	
COc1cc(NC(=O)Cn2ccc3ccc(-c4nnc(C)o4)cc32)cc(OC)c1	> 40	1.18
Cc1cccc(NC(=O)Cn2ccc3ccc(-c4nnc(C)o4)cc32)c1	> 40	2.8
Cc1noc(-c2ccc3ccn(CC(=O)Nc4ccccc4Cl)c3c2)n1		> 10
CCn1cc(-c2ccc3ccn(CC(=O)Nc4ccccc4Cl)c3c2)cn1	> 40	> 10
Cc1nnc(-c2ccc3ccn(CC(=O)Nc4cccc(F)c4)c3c2)o1	> 40	1.45
COc1ccccc1NC(=O)Cn1ccc2ccc(-c3nnc(C)o3)cc21		> 10
O=C(Cn1ccc2ccc(-c3cnn(CC(F)(F)F)c3)cc21)Nc1ccccc1Cl		> 10
Cc1nnc(-c2ccc3ccn(CC(=O)Nc4ccccc4C)c3c2)o1		1.18
COc1cc(NC(=O)Cn2cc(Cl)c3ccc(-c4cn(C)nc4C)cc32)cc(OC)c1OC		0.022
Cn1cc(-c2ccc3ncn(CC(=O)Nc4ccccc4Cl)c3c2)cn1		> 10
Cc1cc(-c2ccc3ccn(CC(=O)Nc4ccccc4Cl)c3c2)cnn1		3.65
Cc1cc(-c2ccc3ccn(CC(=O)Nc4ccccc4Cl)c3c2)ccn1		2.83
Cc1ccc(-c2ccc3ccn(CC(=O)Nc4ccccc4Cl)c3c2)s1		> 10
O=C(Cn1ccc2ccc(-c3cnn(-c4ccccc4)c3)cc21)Nc1ccccc1Cl		> 10
Cn1cc(-c2cnc3ccn(CC(=O)Nc4ccccc4Cl)c3c2)cn1		> 10
Cc1ccc(-c2ccc3ccn(CC(=O)Nc4ccccc4Cl)c3c2)cc1		> 10
O=C(Cn1ccc2ccc(-c3nnc(C(F)(F)F)o3)cc21)Nc1ccccc1Cl		> 10
Cn1ccc(-c2ccc3ccn(CC(=O)Nc4ccccc4Cl)c3c2)n1		> 10

Reference: ChEMBL document CHEMBL6115053, “Optimization and Characterization of N-Acetamide Indoles as Antimalarials That Target PfATP4” (J Med Chem, 2025)
